Drawing on patent publication US20240246967A1, “AXL COMPOUNDS” (ARCUS BIOSCIENCES, INC., priority 2021, published 2024), this text covers IC50 for 20 molecules.

A word on the IC50: it is the concentration at which inhibition is half-maximal.

The structures appear in SMILES notation. A value given as a limit tells only on which side of the number the result lay.

The assay addresses T1, human TYRO3 (Homo sapiens, UniProt Q06418).
T1 construct: purchased Invitrogen
T1 sequence (Q06418 41-890): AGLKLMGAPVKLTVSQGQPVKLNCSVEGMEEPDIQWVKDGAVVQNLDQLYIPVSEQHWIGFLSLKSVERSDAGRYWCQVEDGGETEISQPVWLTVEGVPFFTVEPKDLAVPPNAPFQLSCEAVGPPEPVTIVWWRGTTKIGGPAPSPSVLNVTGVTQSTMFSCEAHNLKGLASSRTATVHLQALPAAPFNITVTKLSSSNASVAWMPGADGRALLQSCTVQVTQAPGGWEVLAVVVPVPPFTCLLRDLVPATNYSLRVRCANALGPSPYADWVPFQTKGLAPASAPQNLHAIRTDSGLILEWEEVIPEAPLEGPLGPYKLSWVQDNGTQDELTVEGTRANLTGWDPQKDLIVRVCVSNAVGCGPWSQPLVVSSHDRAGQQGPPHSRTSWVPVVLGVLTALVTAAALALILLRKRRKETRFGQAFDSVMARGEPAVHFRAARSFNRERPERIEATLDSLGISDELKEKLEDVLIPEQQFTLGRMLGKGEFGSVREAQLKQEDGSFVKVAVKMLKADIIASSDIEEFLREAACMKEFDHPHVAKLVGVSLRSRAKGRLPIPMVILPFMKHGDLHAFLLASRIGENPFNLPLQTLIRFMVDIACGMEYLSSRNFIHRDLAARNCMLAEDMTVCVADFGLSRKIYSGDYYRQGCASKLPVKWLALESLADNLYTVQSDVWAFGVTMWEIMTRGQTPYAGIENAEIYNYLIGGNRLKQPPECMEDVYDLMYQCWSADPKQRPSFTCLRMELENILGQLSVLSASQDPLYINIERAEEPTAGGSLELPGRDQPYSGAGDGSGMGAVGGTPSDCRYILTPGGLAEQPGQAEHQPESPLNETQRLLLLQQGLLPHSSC
The assay can be described thus: HTRF KinEASE-TK biochemical potency assay, TYRO3. As to conditions: 1 nM TYRO3, 700 μM ATP, 800 nM TK Substrate-biotin. Here is the method:
Purified recombinant human AXL, TYRO3 and MER proteins were purchased from Invitrogen™. 10 nM AXL, 2 nM TYRO3 or MER were incubated with varying concentrations of compounds in 50 mM HEPES, pH 7.4, 10 mM MgCl2, 0.01% BSA, 1 mM DTT and 2% DMSO in a total volume of 20 μl in a 384-well microplate (Corning™ #3640) at RT for 1 h. The AXL, TYRO3 and MER enzymatic reaction was initiated by transferring 10 μl of enzyme and compound mixture into 10 μl of 1.6 μM TK Substrate-biotin (HTRF® KinEASE-TK kit, Cisbio) and 1400 μM ATP pre-incubated in 50 mM HEPES, pH 7.4, 10 mM MgCl2, 0.01% BSA, 1 mM DTT in a 384-well microplate (Corning™ #3640) at RT, giving the final reaction conditions: 5 nM AXL, 1 nM TYRO3 or MER, 800 nM TK Substrate-biotin and 700 μM ATP in 50 mM HEPES, pH 7.4, 10 mM MgCl2, 0.01% BSA, 1 mM DTT and 1% DMSO with varying concentrations of compounds. Following 2 h incubation at RT, the AXL, TYRO3 and MER enzymatic reaction was stopped by transfer of 10 μl of reaction into 10 μl of detection mix (400 nM Streptavidin-XL665, 200-fold dilution TK Antibody-Cryptate and detection buffer, HTRF® KinEASE-TK kit, Cisbio) in a white 384-well microplate (Perkin Elmer, OptiPlate 384). After 1 h incubation at RT, the plate was put into a plate reader (Evision) to read at 665/620 nm (acceptor/donor) for HTRF. The value of the DMSO blank (MIN inhibition=100% activity) was used as a negative control. The positive control was established by adding 5 μl of enzyme and DMSO mixture into 10 μl of detection mix followed by addition of 5 μl of TK Substrate-biotin and ATP mixture (MAX inhibition=0% activity). To calculate the percent activity, Equation 1 was used. Ratio 665/620 is the value at a given compound concentration: […]
As to `CC1(N2CCC[C@H]2CO)CCc2ccc(-c3cnc4[nH]nc(-c5ccc(S(=O)(=O)C6CC6)cc5)c4c3)cc2CC1` (stereo partly drawn) [Example 4, [(2S)-1-(2-{3-[4-(Cyclopropanesulfonyl)phenyl]-1H-pyrazolo[3,4-b]pyridin-5-yl}-7-methyl-6,7,8,9-tetrahydro-5H-benzo[7]annulen-7-yl)pyrrolidin-2-yl]methanol], the IC50 lay in the range of 100 to 1000 nM.
In the case of `C[C@H]1CCCN1C1(C)CCc2ccc(-c3cnc4[nH]nc(-c5ccc(S(=O)(=O)C6CC6)cc5)c4c3)cc2CC1` (stereo partly drawn) [Example 5, (2S)-1-(2-{3-[4-(Cyclopropanesulfonyl)phenyl]-1H-pyrazolo[3,4-b]pyridin-5-yl}-7-methyl-6,7,8,9-tetrahydro-5H-benzo[7]annulen-7-yl)-2-methylpyrrolidine], the IC50 is under 100 nM.
Under `CCC1(N2CCC[C@H]2C)CCc2ccc(-c3cnc4[nH]nc(-c5ccc(S(=O)(=O)C6CC6)cc5)c4c3)cc2CC1` (stereo partly drawn) [Example 6, (2R)-1-(2-{3-[4-(Cyclopropanesulfonyl)phenyl]-1H-pyrazolo[3,4-b]pyridin-5-yl}-7-ethyl-6,7,8,9-tetrahydro-5H-benzo[7]annulen-7-yl)-2-methylpyrrolidine] stands 100 to 1000 nM; under `CC1(N2CCC2)CCc2ccc(-c3cnc4[nH]nc(-c5ccc(S(=O)(=O)C6CC6)cc5)c4c3)cc2CC1` (centres unmarked) [Example 7, 1-(2-{3-[4-(Cyclopropanesulfonyl)phenyl]-1H-pyrazolo[3,4-b]pyridin-5-yl}-7-methyl-6,7,8,9-tetrahydro-5H-benzo[7]annulen-7-yl)azetidine], 100 to 1000 nM.
As for `C[C@@H]1CCCN1C1(C)CCc2ccc(-c3cnc4[nH]nc(-c5ccc(S(=O)(=O)C(F)(F)F)cc5)c4c3)cc2CC1` (stereo partly drawn) [Example 8, (2R)-2-Methyl-1-{7-methyl-2-[3-(4-trifluoromethanesulfonylphenyl)-1H-pyrazolo[3,4-b]pyridin-5-yl]-6,7,8,9-tetrahydro-5H-benzo[7]annulen-7-yl}pyrrolidine], the figure is over 1000 nM; as for `CC(C)(O)c1ccc(-c2n[nH]c3ncc(-c4ccc5c(c4)CCC(N4CCCC4)CC5)cc23)cn1` (centres unmarked) [Example 9, 2-(5-{5-[7-(Pyrrolidin-1-yl)-6,7,8,9-tetrahydro-5H-benzo[7]annulen-2-yl]-1H-pyrazolo[3,4-b]pyridin-3-yl}pyridin-2-yl)propan-2-ol], under 100 nM.
Consider `CC(C)(O)c1ccc(-c2n[nH]c3ncc(-c4ccc5c(c4)CCN(C4CCCC4)CC5)cc23)cn1` [Example 10, 2-{5-[5-(3-Cyclopentyl-2,3,4,5-tetrahydro-1H-3-benzazepin-7-yl)-1H-pyrazolo[3,4-b]pyridin-3-yl]pyridin-2-yl}propan-2-ol], for which the IC50 was 100 to 1000 nM.
As for `CC(C)(O)c1ccc(-c2n[nH]c3ncc(-c4ccc5c(c4)CCC(N4CCCC4)CC5)cc23)cc1Cl` (centres unmarked) [Example 11, 2-(2-Chloro-4-{5-[7-(pyrrolidin-1-yl)-6,7,8,9-tetrahydro-5H-benzo[7]annulen-2-yl]-1H-pyrazolo[3,4-b]pyridin-3-yl}phenyl)propan-2-ol], the figure is 100 to 1000 nM; as for `CC(C)(O)c1ccc(-c2n[nH]c3ncc(-c4ccc5c(c4)CCN(C4CCCC4)CC5)cc23)cc1Cl` [Example 12, 2-{2-Chloro-4-[5-(3-cyclopentyl-2,3,4,5-tetrahydro-1H-3-benzazepin-7-yl)-1H-pyrazolo[3,4-b]pyridin-3-yl]phenyl}propan-2-ol], over 1000 nM; as for `CC(C)(O)c1ccc(-c2n[nH]c3ncc(-c4ccc5c(c4)CCN(C4CCCC4)CC5)cc23)cc1C(F)(F)F` [Example 16, 2-{4-[5-(3-Cyclopentyl-2,3,4,5-tetrahydro-1H-3-benzazepin-7-yl)-1H-pyrazolo[3,4-b]pyridin-3-yl]-2-(trifluoromethyl)phenyl}propan-2-ol], 100 to 1000 nM.
`CC(C)(O)c1ccc(-c2n[nH]c3ncc(-c4ccc5c(c4)CCN(C4CCCC4)CC5)cc23)c(F)c1` [Example 17, 2-{4-[5-(3-Cyclopentyl-2,3,4,5-tetrahydro-1H-3-benzazepin-7-yl)-1H-pyrazolo[3,4-b]pyridin-3-yl]-3-fluorophenyl}propan-2-ol] had an IC50 of 100 to 1000 nM.
As for `C[C@@H]1CCCN1C1CCc2ccc(-c3cnc4[nH]nc(-c5ccc(C(C)(C)O)c(C(F)(F)F)c5)c4c3)cc2CC1` (stereo partly drawn) [Example 20, 2-[4-(5-{7-[(2R)-2-Methylpyrrolidin-1-yl]-6,7,8,9-tetrahydro-5H-benzo[7]annulen-2-yl}-1H-pyrazolo[3,4-b]pyridin-3-yl)-2-(trifluoromethyl)phenyl]propan-2-ol], the figure is under 100 nM; as for `CC(C)(O)c1ccc(-c2n[nH]c3ncc(-c4ccc5c(c4)CCC(N4CCC[C@@H]4CO)CC5)cc23)cc1Cl` (stereo partly drawn) [Example 21, 2-[2-Chloro-4-(5-{7-[(2R)-2-(hydroxymethyl)pyrrolidin-1-yl]-6,7,8,9-tetrahydro-5H-benzo[7]annulen-2-yl}-1H-pyrazolo[3,4-b]pyridin-3-yl)phenyl]propan-2-ol], 100 to 1000 nM; as for `C[C@@H]1CCCN1C1(C)CCc2ccc(-c3cnc4[nH]nc(-c5ccc(C(C)(C)O)nc5)c4c3)cc2CC1` (stereo partly drawn) [Example 22, 2-[5-(5-{7-Methyl-7-[(2R)-2-methylpyrrolidin-1-yl]-6,7,8,9-tetrahydro-5H-benzo[7]annulen-2-yl}-1H-pyrazolo[3,4-b]pyridin-3-yl)pyridin-2-yl]propan-2-ol], under 100 nM.
Under `CS(=O)(=O)N1CCC(c2n[nH]c3ncc(-c4ccc5c(c4)CCC(N4CCCC4)CC5)cc23)CC1` (centres unmarked) [Example 23, 1-Methanesulfonyl-4-{5-[7-(pyrrolidin-1-yl)-6,7,8,9-tetrahydro-5H-benzo[7]annulen-2-yl]-1H-pyrazolo[3,4-b]pyridin-3-yl}piperidine] stands 100 to 1000 nM; under `C[C@H]1CCCN1C1CCc2ccc(-c3cnc4[nH]nc(-c5ccc(S(=O)(=O)C6CC6)cc5)c4c3)cc2CC1` (stereo partly drawn) [Example 24, 3-(4-(Cyclopropylsulfonyl)phenyl)-5-(7-((S)-2-methylpyrrolidin-1-yl)-6,7,8,9-tetrahydro-5H-benzo[7]annulen-2-yl)-1H-pyrazolo[3,4-b]pyridine], 100 to 1000 nM.
As for `C[C@@H]1CCCN1C1(C)CCc2ccc(-c3cnc4[nH]nc(-c5ccc(S(=O)(=O)C6CC6)c(F)c5)c4c3)cc2CC1` (stereo partly drawn) [Example 25, (2R)-1-(2-{3-[4-(Cyclopropanesulfonyl)-3-fluorophenyl]-1H-pyrazolo[3,4-b]pyridin-5-yl}-7-methyl-6,7,8,9-tetrahydro-5H-benzo[7]annulen-7-yl)-2-methylpyrrolidine], the figure is under 100 nM; as for `O=S(=O)(c1ccc(-c2n[nH]c3ncc(-c4ccc5c(c4)CCN(C4CCOCC4)CC5)cc23)cc1)C1CC1` [Example 26, 7-{3-[4-(Cyclopropanesulfonyl)phenyl]-1H-pyrazolo[3,4-b]pyridin-5-yl}-3-(oxan-4-yl)-2,3,4,5-tetrahydro-1H-3-benzazepine], 100 to 1000 nM.
In the case of `O=S(=O)(c1ccc(-c2n[nH]c3ncc(-c4ccc5c(c4)CCN(CC4CCOC4)CC5)cc23)cc1)C1CC1` (centres unmarked) [Example 27, 7-{3-[4-(Cyclopropanesulfonyl)phenyl]-1H-pyrazolo[3,4-b]pyridin-5-yl}-3-[(oxolan-3-yl)methyl]-2,3,4,5-tetrahydro-1H-3-benzazepine], the 50% inhibitory concentration (IC50) was over 1000 nM.
Take `CS(=O)(=O)c1ccc(-c2n[nH]c3ncc(-c4ccc5c(c4)CCN(C4CCCC4)CC5)cc23)cc1` [Example 30, 3-Cyclopentyl-7-(3-(4-(methylsulfonyl)phenyl)-1H-pyrazolo[3,4-b]pyridin-5-yl)-2,3,4,5-tetrahydro-1H-benzo[d]azepine]: the half-maximal inhibitory concentration (IC50) was under 100 nM.
